System: mice
Assay: Acute toxicity in female and male mice after oral administration of a single dose
Format: in vivo
Details: observation time 14 days
Protocol: (§1) The acute toxicity was determined in home-bred female and male mice having body weights of from 20 to 26 gm after oral administration (suspension in a 1% methyl cellulose solution) of a single dose. Observation time: 14 days.

SMILES | animals died
O=C(Cc1ccc(C(=O)O)cc1)NC(c1ccccc1F)c1ccccc1N1CCCCC1 (stereo not drawn) [AD, 4-[(α-(2-Fluoro-phenyl)-2-piperidino-benzyl)-aminocarbonylmethyl]-benzoic acid] | 0 out of 10
O=C(Cc1ccc(C(=O)O)cc1)NC(c1ccc(Cl)cc1)c1ccccc1N1CCCCC1 (stereo not drawn) [AE, 4-[(α-(4-Chloro-phenyl)-2-piperidino-benzyl)-aminocarbonylmethyl]-benzoic acid] | 0 out of 10
O=C(Cc1ccc(C(=O)O)cc1)NC(c1ccccn1)c1ccccc1N1CCCCC1 (stereo not drawn) [AG, 4-[(2-Piperidino-α-(2-pyridyl)-benzyl)-aminocarbonylmethyl]-benzoic acid] | 0 out of 10
CC/C=C(/NC(=O)Cc1ccc(C(=O)O)cc1)c1ccccc1N1CCCCC1 [C, (E)-4-[(1-(2-Piperidino-phenyl)-1-buten-1-yl)-aminocarbonylmethyl]-benzoic acid] | 0 out of 6
CC(C)=C(NC(=O)Cc1ccc(C(=O)O)cc1)c1ccccc1N1CCCCC1 [D, 4-[(2-Methyl-1-(2-piperidino-phenyl)-1-propen-1-yl)-aminocarbonylmethyl]-benzoic acid] | 0 out of 6

System: not listed separately
Assay: as above
Format: in vivo
Details: mouse, in vivo, observation time 14 days, read-out: Peroral Toxicity
Protocol: as §1

SMILES | LD50 at 336 h
O=C(Cc1ccc(C(=O)O)cc1)NC(c1ccccc1F)c1ccccc1N1CCCCC1 (stereo not drawn) [AD, 4-[(α-(2-Fluoro-phenyl)-2-piperidino-benzyl)-aminocarbonylmethyl]-benzoic acid] | > 1000 mg/kg
O=C(Cc1ccc(C(=O)O)cc1)NC(c1ccc(Cl)cc1)c1ccccc1N1CCCCC1 (stereo not drawn) [AE, 4-[(α-(4-Chloro-phenyl)-2-piperidino-benzyl)-aminocarbonylmethyl]-benzoic acid] | > 1000 mg/kg
O=C(Cc1ccc(C(=O)O)cc1)NC(c1ccccn1)c1ccccc1N1CCCCC1 (stereo not drawn) [AG, 4-[(2-Piperidino-α-(2-pyridyl)-benzyl)-aminocarbonylmethyl]-benzoic acid] | > 1000 mg/kg
CC/C=C(/NC(=O)Cc1ccc(C(=O)O)cc1)c1ccccc1N1CCCCC1 [C, (E)-4-[(1-(2-Piperidino-phenyl)-1-buten-1-yl)-aminocarbonylmethyl]-benzoic acid] | > 2000 mg/kg
CC(C)=C(NC(=O)Cc1ccc(C(=O)O)cc1)c1ccccc1N1CCCCC1 [D, 4-[(2-Methyl-1-(2-piperidino-phenyl)-1-propen-1-yl)-aminocarbonylmethyl]-benzoic acid] | > 500 mg/kg

System: blood-sugar
Assay: Blood-sugar lowering activity in starved female rats after oral administration
Format: in vivo
Details: 1 mg/kg orally, 2 hours, n.s. = not statistically significant

SMILES | Blood-sugar lowering activity, percent as compared with the controls
O=C(Cc1ccc(C(=O)O)cc1)NC(c1ccccn1)c1ccccc1N1CCCCC1 (stereo not drawn) [AG, 4-[(2-Piperidino-α-(2-pyridyl)-benzyl)-aminocarbonylmethyl]-benzoic acid] | n.s.

Same assay, conditions: 1 mg/kg orally, 3 hours, n.s. = not statistically significant

SMILES | Blood-sugar lowering activity, percent as compared with the controls
O=C(Cc1ccc(C(=O)O)cc1)NC(c1ccccn1)c1ccccc1N1CCCCC1 (stereo not drawn) [AG, 4-[(2-Piperidino-α-(2-pyridyl)-benzyl)-aminocarbonylmethyl]-benzoic acid] | n.s.

Same assay, conditions: 1 mg/kg orally, 4 hours, n.s. = not statistically significant

SMILES | Blood-sugar lowering activity, percent as compared with the controls
O=C(Cc1ccc(C(=O)O)cc1)NC(c1ccc(Cl)cc1)c1ccccc1N1CCCCC1 (stereo not drawn) [AE, 4-[(α-(4-Chloro-phenyl)-2-piperidino-benzyl)-aminocarbonylmethyl]-benzoic acid] | n.s.
O=C(Cc1ccc(C(=O)O)cc1)NC(c1ccccn1)c1ccccc1N1CCCCC1 (stereo not drawn) [AG, 4-[(2-Piperidino-α-(2-pyridyl)-benzyl)-aminocarbonylmethyl]-benzoic acid] | n.s.

Same assay, conditions: Rattus norvegicus, po, 1 mg/kg orally, 1 hour, n.s. = not statistically significant, read-out: Blood-sugar lowering activity, percent as compared with the controls

SMILES | change in vivo at 1 mg/kg
O=C(Cc1ccc(C(=O)O)cc1)NC(c1ccccc1F)c1ccccc1N1CCCCC1 (stereo not drawn) [AD, 4-[(α-(2-Fluoro-phenyl)-2-piperidino-benzyl)-aminocarbonylmethyl]-benzoic acid] | -16%
O=C(Cc1ccc(C(=O)O)cc1)NC(c1ccc(Cl)cc1)c1ccccc1N1CCCCC1 (stereo not drawn) [AE, 4-[(α-(4-Chloro-phenyl)-2-piperidino-benzyl)-aminocarbonylmethyl]-benzoic acid] | -21%
O=C(Cc1ccc(C(=O)O)cc1)NC(c1ccccn1)c1ccccc1N1CCCCC1 (stereo not drawn) [AG, 4-[(2-Piperidino-α-(2-pyridyl)-benzyl)-aminocarbonylmethyl]-benzoic acid] | -18%
CC/C=C(/NC(=O)Cc1ccc(C(=O)O)cc1)c1ccccc1N1CCCCC1 [C, (E)-4-[(1-(2-Piperidino-phenyl)-1-buten-1-yl)-aminocarbonylmethyl]-benzoic acid] | -43%
CC(C)=C(NC(=O)Cc1ccc(C(=O)O)cc1)c1ccccc1N1CCCCC1 [D, 4-[(2-Methyl-1-(2-piperidino-phenyl)-1-propen-1-yl)-aminocarbonylmethyl]-benzoic acid] | -36%

Same assay, conditions: Rattus norvegicus, po, 1 mg/kg orally, 2 hours, n.s. = not statistically significant, read-out: Blood-sugar lowering activity, percent as compared with the controls

SMILES | change in vivo at 1 mg/kg
O=C(Cc1ccc(C(=O)O)cc1)NC(c1ccccc1F)c1ccccc1N1CCCCC1 (stereo not drawn) [AD, 4-[(α-(2-Fluoro-phenyl)-2-piperidino-benzyl)-aminocarbonylmethyl]-benzoic acid] | -20%
O=C(Cc1ccc(C(=O)O)cc1)NC(c1ccc(Cl)cc1)c1ccccc1N1CCCCC1 (stereo not drawn) [AE, 4-[(α-(4-Chloro-phenyl)-2-piperidino-benzyl)-aminocarbonylmethyl]-benzoic acid] | -20%
CC/C=C(/NC(=O)Cc1ccc(C(=O)O)cc1)c1ccccc1N1CCCCC1 [C, (E)-4-[(1-(2-Piperidino-phenyl)-1-buten-1-yl)-aminocarbonylmethyl]-benzoic acid] | -43%
CC(C)=C(NC(=O)Cc1ccc(C(=O)O)cc1)c1ccccc1N1CCCCC1 [D, 4-[(2-Methyl-1-(2-piperidino-phenyl)-1-propen-1-yl)-aminocarbonylmethyl]-benzoic acid] | -32%

Same assay, conditions: Rattus norvegicus, po, 1 mg/kg orally, 3 hours, n.s. = not statistically significant, read-out: Blood-sugar lowering activity, percent as compared with the controls

SMILES | change in vivo at 1 mg/kg
O=C(Cc1ccc(C(=O)O)cc1)NC(c1ccccc1F)c1ccccc1N1CCCCC1 (stereo not drawn) [AD, 4-[(α-(2-Fluoro-phenyl)-2-piperidino-benzyl)-aminocarbonylmethyl]-benzoic acid] | -17%
O=C(Cc1ccc(C(=O)O)cc1)NC(c1ccc(Cl)cc1)c1ccccc1N1CCCCC1 (stereo not drawn) [AE, 4-[(α-(4-Chloro-phenyl)-2-piperidino-benzyl)-aminocarbonylmethyl]-benzoic acid] | -22%
CC/C=C(/NC(=O)Cc1ccc(C(=O)O)cc1)c1ccccc1N1CCCCC1 [C, (E)-4-[(1-(2-Piperidino-phenyl)-1-buten-1-yl)-aminocarbonylmethyl]-benzoic acid] | -37%
CC(C)=C(NC(=O)Cc1ccc(C(=O)O)cc1)c1ccccc1N1CCCCC1 [D, 4-[(2-Methyl-1-(2-piperidino-phenyl)-1-propen-1-yl)-aminocarbonylmethyl]-benzoic acid] | -27%

Same assay, conditions: Rattus norvegicus, po, 1 mg/kg orally, 4 hours, n.s. = not statistically significant, read-out: Blood-sugar lowering activity, percent as compared with the controls

SMILES | change in vivo at 1 mg/kg
O=C(Cc1ccc(C(=O)O)cc1)NC(c1ccccc1F)c1ccccc1N1CCCCC1 (stereo not drawn) [AD, 4-[(α-(2-Fluoro-phenyl)-2-piperidino-benzyl)-aminocarbonylmethyl]-benzoic acid] | -14%
CC/C=C(/NC(=O)Cc1ccc(C(=O)O)cc1)c1ccccc1N1CCCCC1 [C, (E)-4-[(1-(2-Piperidino-phenyl)-1-buten-1-yl)-aminocarbonylmethyl]-benzoic acid] | -38%
CC(C)=C(NC(=O)Cc1ccc(C(=O)O)cc1)c1ccccc1N1CCCCC1 [D, 4-[(2-Methyl-1-(2-piperidino-phenyl)-1-propen-1-yl)-aminocarbonylmethyl]-benzoic acid] | -25%

Same assay, conditions: Rattus norvegicus, po, 5 mg/kg orally, 1 hour, n.s. = not statistically significant, read-out: Blood-sugar lowering activity, percent as compared with the controls

SMILES | change in vivo at 5 mg/kg
O=C(Cc1ccc(C(=O)O)cc1)NC(c1ccccc1F)c1ccccc1N1CCCCC1 (stereo not drawn) [AD, 4-[(α-(2-Fluoro-phenyl)-2-piperidino-benzyl)-aminocarbonylmethyl]-benzoic acid] | -28%
O=C(Cc1ccc(C(=O)O)cc1)NC(c1ccc(Cl)cc1)c1ccccc1N1CCCCC1 (stereo not drawn) [AE, 4-[(α-(4-Chloro-phenyl)-2-piperidino-benzyl)-aminocarbonylmethyl]-benzoic acid] | -30%

Same assay, conditions: Rattus norvegicus, po, 5 mg/kg orally, 2 hours, n.s. = not statistically significant, read-out: Blood-sugar lowering activity, percent as compared with the controls

SMILES | change in vivo at 5 mg/kg
O=C(Cc1ccc(C(=O)O)cc1)NC(c1ccccc1F)c1ccccc1N1CCCCC1 (stereo not drawn) [AD, 4-[(α-(2-Fluoro-phenyl)-2-piperidino-benzyl)-aminocarbonylmethyl]-benzoic acid] | -32%
O=C(Cc1ccc(C(=O)O)cc1)NC(c1ccc(Cl)cc1)c1ccccc1N1CCCCC1 (stereo not drawn) [AE, 4-[(α-(4-Chloro-phenyl)-2-piperidino-benzyl)-aminocarbonylmethyl]-benzoic acid] | -28%

Same assay, conditions: Rattus norvegicus, po, 5 mg/kg orally, 3 hours, n.s. = not statistically significant, read-out: Blood-sugar lowering activity, percent as compared with the controls

SMILES | change in vivo at 5 mg/kg
O=C(Cc1ccc(C(=O)O)cc1)NC(c1ccccc1F)c1ccccc1N1CCCCC1 (stereo not drawn) [AD, 4-[(α-(2-Fluoro-phenyl)-2-piperidino-benzyl)-aminocarbonylmethyl]-benzoic acid] | -27%
O=C(Cc1ccc(C(=O)O)cc1)NC(c1ccc(Cl)cc1)c1ccccc1N1CCCCC1 (stereo not drawn) [AE, 4-[(α-(4-Chloro-phenyl)-2-piperidino-benzyl)-aminocarbonylmethyl]-benzoic acid] | -39%

Same assay, conditions: Rattus norvegicus, po, 5 mg/kg orally, 4 hours, n.s. = not statistically significant, read-out: Blood-sugar lowering activity, percent as compared with the controls

SMILES | change in vivo at 5 mg/kg
O=C(Cc1ccc(C(=O)O)cc1)NC(c1ccccc1F)c1ccccc1N1CCCCC1 (stereo not drawn) [AD, 4-[(α-(2-Fluoro-phenyl)-2-piperidino-benzyl)-aminocarbonylmethyl]-benzoic acid] | -28%
O=C(Cc1ccc(C(=O)O)cc1)NC(c1ccc(Cl)cc1)c1ccccc1N1CCCCC1 (stereo not drawn) [AE, 4-[(α-(4-Chloro-phenyl)-2-piperidino-benzyl)-aminocarbonylmethyl]-benzoic acid] | -36%

Same assay, conditions: Rattus norvegicus, po, 10 mg/kg orally (footnote *), 1 hour, read-out: Blood-sugar lowering activity, percent as compared with the controls

SMILES | change in vivo at 10 mg/kg
O=C(Cc1ccc(C(=O)O)cc1)NC(c1ccccn1)c1ccccc1N1CCCCC1 (stereo not drawn) [AG, 4-[(2-Piperidino-α-(2-pyridyl)-benzyl)-aminocarbonylmethyl]-benzoic acid] | -49%

Same assay, conditions: Rattus norvegicus, po, 10 mg/kg orally (footnote *), 2 hours, read-out: Blood-sugar lowering activity, percent as compared with the controls

SMILES | change in vivo at 10 mg/kg
O=C(Cc1ccc(C(=O)O)cc1)NC(c1ccccn1)c1ccccc1N1CCCCC1 (stereo not drawn) [AG, 4-[(2-Piperidino-α-(2-pyridyl)-benzyl)-aminocarbonylmethyl]-benzoic acid] | -50%

Same assay, conditions: Rattus norvegicus, po, 10 mg/kg orally (footnote *), 3 hours, n.s. = not statistically significant, read-out: Blood-sugar lowering activity, percent as compared with the controls

SMILES | change in vivo at 10 mg/kg
O=C(Cc1ccc(C(=O)O)cc1)NC(c1ccccn1)c1ccccc1N1CCCCC1 (stereo not drawn) [AG, 4-[(2-Piperidino-α-(2-pyridyl)-benzyl)-aminocarbonylmethyl]-benzoic acid] | -36%

Same assay, conditions: Rattus norvegicus, po, 10 mg/kg orally (footnote *), 4 hours, n.s. = not statistically significant, read-out: Blood-sugar lowering activity, percent as compared with the controls

SMILES | change in vivo at 10 mg/kg
O=C(Cc1ccc(C(=O)O)cc1)NC(c1ccccn1)c1ccccc1N1CCCCC1 (stereo not drawn) [AG, 4-[(2-Piperidino-α-(2-pyridyl)-benzyl)-aminocarbonylmethyl]-benzoic acid] | -31%
